Assay results published in patent US7307083B2, “Tetrahydro-acridine and dithiolane derivatives” (priority 2005, dated 2007).
Entries after “also recorded” stand apart in the source; their conditions may differ. Like-named read-outs stand apart in the source and are kept apart here. Marks after values point to notes of the source that are not given here. Square brackets hold non-standard residues; d marks the D form. Peptide text beside a SMILES is read from it. Sta = CC(C)C[C@H](N)[C@@H](O)CC(=O)O

What was measured:
BACE1 (β-secretase) = biological target: T1, BACE1 (β-secretase) (Homo sapiens, UniProt P56817); assay: biochemical
T1 construct: host or cells: Baculovirus expression system
T1 sequence (P56817 46-501): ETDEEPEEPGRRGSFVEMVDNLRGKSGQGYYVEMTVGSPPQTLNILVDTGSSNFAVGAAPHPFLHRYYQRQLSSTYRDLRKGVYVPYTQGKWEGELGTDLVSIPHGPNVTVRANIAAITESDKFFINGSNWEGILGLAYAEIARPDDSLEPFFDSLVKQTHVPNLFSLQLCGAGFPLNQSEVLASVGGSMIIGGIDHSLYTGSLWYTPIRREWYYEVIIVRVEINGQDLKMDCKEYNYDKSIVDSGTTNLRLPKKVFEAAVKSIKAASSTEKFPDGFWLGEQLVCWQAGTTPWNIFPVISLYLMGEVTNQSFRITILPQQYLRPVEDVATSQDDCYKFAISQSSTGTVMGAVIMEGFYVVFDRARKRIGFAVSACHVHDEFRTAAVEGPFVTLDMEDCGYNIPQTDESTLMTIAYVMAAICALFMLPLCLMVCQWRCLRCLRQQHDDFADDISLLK
Description: Assay for the analysis of BACE activity
BACE1 (β-secretase) purified and expressed in Baculovirus in 50 mM Tris HCl (pH=7.5), 10% glycerol (5 Units)
Assay buffer: 50 mM Sodium Acetate, pH=4.5
20 μL of substrate were added to 20 μL of the compound to be tested (or to the buffer if preparing the control well)
To start the reaction, 20 μL of BACE1 enzyme were added to the well.
The mixture was incubated at 37° C. for 60 minutes.
20 μL of the solution were added to stop the reaction. Then the fluorescence signal was read.
BACE activity was measured with a fluorimetric analysis method using a multi-well spectrofluorimeter. The peptide substrate of the analysis mimes the APP protein which is the natural substrate of BACE.
The inhibition curves were obtained for each compound by plotting on a graph the inhibition percentages obtained with respect to the logarithm of the inhibitor concentration. The linear regression parameters were determined and, when possible, the value of IC50 was extrapolated (GraphPad Prism 3.0 GraphPad Software Inc.).
The value of IC50 was calculated using GraphPad Prism software.

anti-NGF mice (AD11) = assay: Cholinergic deficit of anti-NGF mice: ChAT immunohistochemistry, cholinergic neurones in the basal forebrain; conditions: i.p., 15 days, doses of Table 6
Description: Immunohistochemistry was carried out to show the number of cholinergic neurones in the basal forebrain. For this purpose, sections were incubated with the monoclonal antibody anticholine acetyltransferase (1:500, Chemicon International Inc., Temecula, Calif.).

[1] = biological target: T2, AChE-induced Aβ40 aggregation (Homo sapiens, UniProt P22303); assay: biochemical; conditions: for inhibition at 100 µM: read-out: % of inhibition ± SEM of AChE-induced Aβ40 aggregation
T2 sequence (P22303 32-614): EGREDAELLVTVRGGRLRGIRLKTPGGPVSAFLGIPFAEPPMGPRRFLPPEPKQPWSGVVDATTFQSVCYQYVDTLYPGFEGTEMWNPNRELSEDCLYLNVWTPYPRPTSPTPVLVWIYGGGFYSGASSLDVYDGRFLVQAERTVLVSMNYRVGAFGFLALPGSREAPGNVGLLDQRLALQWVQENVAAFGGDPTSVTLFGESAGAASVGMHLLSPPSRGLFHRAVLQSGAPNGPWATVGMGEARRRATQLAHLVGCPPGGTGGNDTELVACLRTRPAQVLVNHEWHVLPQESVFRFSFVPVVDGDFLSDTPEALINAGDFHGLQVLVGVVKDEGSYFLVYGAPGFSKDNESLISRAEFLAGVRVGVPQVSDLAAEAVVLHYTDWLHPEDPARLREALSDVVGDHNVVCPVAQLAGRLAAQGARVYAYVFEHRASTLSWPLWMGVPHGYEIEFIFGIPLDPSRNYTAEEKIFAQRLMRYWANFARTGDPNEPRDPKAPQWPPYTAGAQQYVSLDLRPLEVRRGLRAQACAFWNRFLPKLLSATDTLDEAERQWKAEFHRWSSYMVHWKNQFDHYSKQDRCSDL

SH-SY5Y cells [2] = assay: Intracellular antioxidant activity: ROS formation evoked by t-BuOOH (DCFH-DA probe); format: cell-based, human; conditions: for % intracellular ROS: percentage increase of ROS by t-BuOOH, mean±SD of three tests; for effect on ROS formation, in words: 0.1-50 μM for LA and 7, 0.1-5 μM for 15
Description: Significant inhibiting effects were obtained with concentrations of 7 or 5 μM (p<0.01), 10 μM and 50 μM (for both p<0.001).
The results are expressed as the percentage increase of intracellular ROS determined by the treatment with tert-butyl hydroperoxide. Data are reported as the mean±SD (standard deviation) of three tests independent of one another (treated against not treated; *p<0.01, **p<0.001). ^btox=cytotoxicity.

[3] = biological target: human recombinant acetylcholinesterase (AChE or HuAChE) (Homo sapiens, UniProt P22303); assay: biochemical; format: biochemical
Sequence of human recombinant acetylcholinesterase (AChE or HuAChE) (P22303 32-614): as above

SH-SY5Y cells [4] = assay: Toxic effects, colorimetric MTT assay; format: cell-based; conditions: 24 hours; for effect on cellular viability (MTT): 0.1-50 μM
Description: The results are expressed as a percentage of cells with respect to the control.
The cellular viability was expressed as a percentage of control cells and calculated by the formula Ft/Fnt×100, where Ft=absorbance of treated neurones and Fnt=absorbance of non treated neurones.
The SH-SY5Y cells were routinely grown at 37° C. in a humidified incubator with 5% CO2 in Dulbecco's modified Eagle's medium supplemented with 10% foetal calf serum (FCS), glutamine 2 mM, penicillin […] and streptomycin 50 μg/mL.

[5] = biological target: T2, AChE-induced Aβ40 aggregation
human recombinant AChE = human recombinant AChE (Homo sapiens, UniProt P22303); assay: Action mechanism and inhibition constant Ki (Lineweaver-Burk method); format: biochemical
Sequence of human recombinant AChE (P22303 32-614): as above
Description: Determination of the action mechanism and of the inhibition constant (Ki). […] To obtain an estimate of the competitive inhibition constant Ki, the Lineweaver-Burk method was used. […] The data obtained were plotted on a graph according to the Lineweaver-Burk method, that is indicating the reciprocal of the enzymatic velocity (1/v) as a function of the reciprocal of the substrate concentration (1/[ACTh)].

[6] = biological target: butyrylcholinesterase (BChE) from human serum (Homo sapiens, UniProt P06276); assay: biochemical; format: biochemical; conditions: BChE from human serum; mean of two independent measurements, each in duplicate; read-out: IC50 BChE
Sequence of butyrylcholinesterase (BChE) from human serum (P06276 29-602): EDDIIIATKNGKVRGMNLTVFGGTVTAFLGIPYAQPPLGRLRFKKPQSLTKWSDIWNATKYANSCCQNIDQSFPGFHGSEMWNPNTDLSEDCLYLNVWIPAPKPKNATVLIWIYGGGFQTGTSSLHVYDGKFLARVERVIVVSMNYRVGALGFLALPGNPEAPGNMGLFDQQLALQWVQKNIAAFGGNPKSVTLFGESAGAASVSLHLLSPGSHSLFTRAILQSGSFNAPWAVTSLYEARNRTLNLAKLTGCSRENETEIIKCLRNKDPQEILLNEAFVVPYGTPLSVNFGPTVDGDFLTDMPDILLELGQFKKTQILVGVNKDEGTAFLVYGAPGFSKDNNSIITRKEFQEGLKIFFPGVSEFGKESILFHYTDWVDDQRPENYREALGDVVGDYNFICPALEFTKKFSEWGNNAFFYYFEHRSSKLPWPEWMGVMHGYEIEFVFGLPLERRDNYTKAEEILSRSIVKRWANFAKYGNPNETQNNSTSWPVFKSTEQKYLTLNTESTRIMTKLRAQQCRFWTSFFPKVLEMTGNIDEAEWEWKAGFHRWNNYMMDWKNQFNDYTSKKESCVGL

Nc1c2c(nc3ccccc13)CCCC2 [Tacrine, reference compound]
IC50 (BACE1 (β-secretase)): > 4000 nM | recovery of the cholinergic deficit (number of cholinergic neurones in the basal forebrain) (anti-NGF mice (AD11)): did not allow the complete recovery of the cholinergic deficit

NCCCNc1c2c(nc3cc(Cl)ccc13)CCCC2 [Compound 15, N^1-(6-chloro-1,2,3,4-tetrahydro-acridin-9-yl)-propane-1,3-diamine]
inhibition at 100 µM [1]: 25 ± 5% | % intracellular ROS (SH-SY5Y cells [2]; 0.1 μM): 88.75 ± 8.41% | % intracellular ROS (SH-SY5Y cells [2]; 0.5 μM): 95.00 ± 5.20% | % intracellular ROS (SH-SY5Y cells [2]; 1 μM): 77.00 ± 8.76% | % intracellular ROS (SH-SY5Y cells [2]; 5 μM): 61.67 ± 9.02* % | % intracellular ROS (SH-SY5Y cells [2]; 10 μM): 51.25 ± 9.21** % | % intracellular ROS (SH-SY5Y cells [2]; 50 μM): 30.50 ± 9.04** % | effect on ROS formation, in words (SH-SY5Y cells [2]): did not show any difference as regards ROS formation | IC50 ([3]; read-out: IC50 AChE): 21.5 nM | decrease of cellular viability (SH-SY5Y cells [4]; 10 μM): 88% | decrease of cellular viability (SH-SY5Y cells [4]; 50 μM): 99% | effect on cellular viability (MTT) (SH-SY5Y cells [4]): has a neurotoxic effect

O=C(CCCCC1CCSS1)NCCCNc1c2c(nc3cc(Cl)ccc13)CCCC2 (racemic) [Compound 7, 5-[1,2]dithiolan-3-yl-pentanoic acid [3-(6-chloro-1,2,3,4-tetrahydro-acridin-9-ylamino)-propyl]-amide]
power versus other classic AChE inhibitors approved for AD (AChE-induced Aβ40 aggregation) [5]: significantly more powerful than other classic AChE inhibitors | times less powerful than propidium (AChE-induced Aβ40 aggregation) [5]: 3 | IC50 (BACE1 (β-secretase); substrate 250 nM, enzyme 1 U/mL, 60 minutes, 37° C., read-out: IC50 (nM) on BACE): 69.7 nM | IC50 [1]: 45000 ± 14600 nM | inhibition at 100 µM [1]: 61.8 ± 0.8% | Ki (human recombinant AChE): 0.155 ± 0.046 nM | type of inhibition (Lineweaver-Burk) (human recombinant AChE): mixed type of competitive inhibition | recovery of the cholinergic deficit (number of cholinergic neurones in the basal forebrain) (anti-NGF mice (AD11)): did not allow the complete recovery of the cholinergic deficit | % intracellular ROS (SH-SY5Y cells [2]; 0.1 μM): 99.50 ± 3.54% | % intracellular ROS (SH-SY5Y cells [2]; 0.5 μM): 99.67 ± 7.02% | % intracellular ROS (SH-SY5Y cells [2]; 1 μM): 96.67 ± 8.02% | % intracellular ROS (SH-SY5Y cells [2]; 5 μM): 82.50 ± 7.78% | % intracellular ROS (SH-SY5Y cells [2]; 10 μM): tox^b | % intracellular ROS (SH-SY5Y cells [2]; 50 μM): tox^b | effect on ROS formation, in words (SH-SY5Y cells [2]): inhibiting effect in ROS formation which depended strongly on the concentration | inhibition of ROS formation (SH-SY5Y cells [2]; SH-SY5Y, t-BuOOH): 64% | IC50 [3]: 0.253 nM | effect on cellular viability (MTT) (SH-SY5Y cells [4]): did not lead to variations in cellular viability; also recorded: do not influence cellular vitality | IC50 [6]: 10.8 nM

CC[C@H](C)[C@H](NC(=O)[C@H](CCC(=O)O)NC(=O)[C@H](CCC(=O)O)NC(=O)[C@@H](NC(=O)[C@@H](N)CCCCN)[C@@H](C)O)C(=O)N[C@@H](CO)C(=O)N[C@@H](CCC(=O)O)C(=O)N[C@H](C(=O)N[C@@H](CC(N)=O)C(=O)N[C@@H](CC(C)C)[C@@H](O)CC(=O)N[C@H](C(=O)N[C@@H](C)C(=O)N[C@@H](CCC(=O)O)C(=O)N[C@@H](Cc1ccccc1)C(=O)O)C(C)C)C(C)C [peptide derivative of statin] (H-KTEEISEVN[Sta]VAEF-OH)
IC50 (BACE1 (β-secretase)): 18 nM

CCN(C)C(=O)Oc1cccc([C@H](C)N(C)C)c1 [Rivastigmine]
IC50 (BACE1 (β-secretase)): > 3000 nM

O=C(CCCC[C@@H]1CCSS1)NCCCNc1c2c(nc3cc(Cl)ccc13)CCCC2 [Compound 24]
power versus other classic AChE inhibitors approved for AD (AChE-induced Aβ40 aggregation) [5]: significantly more powerful than other classic AChE inhibitors | inhibition at 100 µM [1]: 68 ± 3% | IC50 [3]: 0.23 nM

COc1ccc2c3c1O[C@H]1C[C@@H](O)C=C[C@@]31CCN(C)C2 [Galantamine]
IC50 (BACE1 (β-secretase)): > 5000 nM

O=C(O)CCCCC1CCSS1 (centres unmarked) [LA, lipoic acid, reference compound]
% of inhibition ± SEM of AChE-induced Aβ40 aggregation ([5]; compound 100 μM): <5% | recovery of the cholinergic deficit (number of cholinergic neurones in the basal forebrain) (anti-NGF mice (AD11)): did not allow the complete recovery of the cholinergic deficit
